Laboratory results reported in patent US7601746B2 (Shionogi & Co., Ltd., priority 2003, dated 2009).

Target: T1, human TPO receptor (hTPOR) (Homo sapiens, UniProt P40238)
T1 construct: expressed in transfected cells; host or cells: BaF-B03 (murine IL-3 dependent cell line)
T1 sequence (P40238 26-635): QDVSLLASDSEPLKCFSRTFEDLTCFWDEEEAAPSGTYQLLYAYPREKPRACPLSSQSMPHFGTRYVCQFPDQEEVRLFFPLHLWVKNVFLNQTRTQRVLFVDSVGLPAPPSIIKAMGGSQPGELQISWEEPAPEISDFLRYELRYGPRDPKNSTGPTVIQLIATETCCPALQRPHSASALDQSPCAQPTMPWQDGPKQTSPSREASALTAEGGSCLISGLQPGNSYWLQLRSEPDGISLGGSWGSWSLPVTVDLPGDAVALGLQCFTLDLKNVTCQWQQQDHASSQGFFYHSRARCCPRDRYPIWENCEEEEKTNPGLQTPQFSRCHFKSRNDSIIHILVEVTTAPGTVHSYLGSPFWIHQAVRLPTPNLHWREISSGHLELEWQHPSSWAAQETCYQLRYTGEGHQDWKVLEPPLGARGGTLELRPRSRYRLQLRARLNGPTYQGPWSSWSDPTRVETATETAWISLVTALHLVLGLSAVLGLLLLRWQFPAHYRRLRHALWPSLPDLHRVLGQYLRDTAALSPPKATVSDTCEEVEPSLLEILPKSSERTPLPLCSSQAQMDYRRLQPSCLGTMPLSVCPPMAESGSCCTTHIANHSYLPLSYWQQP
Assay: Thrombopoietic activity: proliferation of TPO dependent BaF/hTPOR cells (WST-1, absorbance at 450 nm)
Format: cell-based
Conditions: 20 h + 4 h WST-1, ED50 = half concentration of the concentration showing the maximum thrombopoietic activity
How it was run: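 Proliferation read-out: WST-1 absorbance at 450 nm after 20 h compound exposure plus 4 h reagent, using IL-3-deprived BaF/hTPOR cells (5×10^4 per well) dependent on human TPO receptor signalling. ED50 defined as half the concentration producing maximal activity.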

| Structure (SMILES) | EC50 (Table 2) [nM] | EC50 (Table 1) [nM] |
| --- | --- | --- |
| COc1c(CCCOCC2CCC2)cccc1-c1csc(NC(=O)c2cc(F)c(/C=C(\C)C(=O)O)c(F)c2)n1 [Compound B1854, (E)-3-(4-{4-[3-(3-cyclobutylmethyloxypropyl)-2-methyloxyphenyl]thiazol-2-ylcarbamoyl}-2,6-difluorophenyl)-2-methylacrylic acid] | 24.4 |  |
| CCCCCCCCOC(C)c1cccc(-c2csc(NC(=O)c3cc(F)c(C=C(C)C(=O)O)c(F)c3)n2)c1F (centres unmarked) [Compound B30, 3-(2,6-difluoro-4-{4-[2-fluoro-3-(1-n-octyloxyethyl)phenyl]thiazol-2-ylcarbamoyl}phenyl)-2-methylacrylic acid] |  | 0.78 |
| COc1c(COCCCC2CCCCC2)cccc1-c1csc(NC(=O)c2cc(F)c(/C=C(\C)C(=O)O)c(F)c2)n1 [Compound B397] |  | 2.52 |
| CCCCCCCC(OC)c1cccc(-c2csc(NC(=O)c3cc(Cl)c(C=C(C)C(=O)O)c(Cl)c3)n2)c1F (centres unmarked) [Compound B69, 3-(2,6-dichloro-4-{4-[2-fluoro-3-(1-methyloxyoctyl)phenyl]thiazol-2-ylcarbamoyl}phenyl)-2-methylacrylic acid] |  | 0.78 |
| COC(c1cccc(-c2csc(NC(=O)c3cc(F)c(C=C(C)C(=O)O)c(F)c3)n2)c1F)(C(C)C)C(C)C [Compound B7, 3-(2,6-difluoro-4-{4-[2-fluoro-3-(2,4-dimethyl-3-methyloxy-3-pentyl)phenyl]thiazol-2-ylcarbamoyl}phenyl)-2-methylacrylic acid] |  | 3.6 |
| COc1c(CCOCCCCF)cccc1-c1csc(NC(=O)c2cc(Cl)c(/C=C(\C)C(=O)O)c(Cl)c2)n1 [Compound B2003, (E)-3-[2,6-dichloro-4-(4-{3-[2-(4-fluorobutyloxy)ethyl]-2-methyloxyphenyl}thiazol-2-ylcarbamoyl)phenyl]-2-methylacrylic acid] | 22.7 |  |
| CCCOCCCc1cccc(-c2csc(NC(=O)c3cc(F)c(/C=C(\C)C(=O)O)c(F)c3)n2)c1OC [Compound B380, (E)-3-(2,6-difluoro-4-{4-[2-methyloxy-3-(3-propyloxypropyl)phenyl]thiazol-2-ylcarbamoyl}phenyl)-2-methylacrylic acid] | 23.2 | 23.2 |
| CCOC(CC(C)(C)C)c1cccc(-c2csc(NC(=O)c3cc(Cl)c(C=C(C)C(=O)O)c(Cl)c3)n2)c1F (centres unmarked) [Compound B62, 3-(2,6-dichloro-4-{4-[2-fluoro-3-(1-ethyloxy-3,3-dimethylbutyl)phenyl]thiazol-2-ylcarbamoyl}phenyl)-2-methylacrylic acid] |  | 0.76 |
| CCCCCCCCC(OC)c1cccc(-c2csc(NC(=O)c3cc(F)c(C=C(C)C(=O)O)c(F)c3)n2)c1F (centres unmarked) [Compound B28, 3-(2,6-difluoro-4-{4-[2-fluoro-3-(1-methyloxynonyl)phenyl]thiazol-2-ylcarbamoyl}phenyl)-2-methylacrylic acid] |  | 0.79 |
| CCC(CC)COCc1cccc(-c2csc(NC(=O)c3cc(Cl)c(/C=C(\C)C(=O)O)c(Cl)c3)n2)c1OC [Compound B2025, (E)-3-(2,6-dichloro-4-{4-[3-(2-ethylbutyloxymethyl)-2-methyloxyphenyl]thiazol-2-ylcarbamoyl}phenyl)-2-methylacrylic acid] |  | 3.2 |
| CCCCCOC(c1cccc(-c2csc(NC(=O)c3cc(F)c(/C=C(\C)C(=O)O)c(F)c3)n2)c1OC)C1CCCCC1 (centres unmarked) [Compound B484] |  | 1.29 |
| CCC(CC)COCc1cccc(-c2csc(NC(=O)c3cc(Cl)c(/C=C(\OC)C(=O)O)c(Cl)c3)n2)c1OC [Compound B2026, (Z)-3-(2,6-dichloro-4-{4-[3-(2-ethylbutyloxymethyl)-2-methyloxyphenyl]thiazol-2-ylcarbamoyl}phenyl)-2-methyloxyacrylic acid] |  | 12.6 |
| CCCCOCCCc1cccc(-c2csc(NC(=O)c3cc(F)c(C=C(C)C(=O)O)c(F)c3)n2)c1F [Compound B49, 3-(4-{4-[3-(3-n-butyloxypropyl)-2-fluorophenyl]thiazol-2-ylcarbamoyl}-2,6-difluorophenyl)-2-methylacrylic acid] |  | 1.3 |
